# Source: ChEMBL document CHEMBL5046279, “Discovery of a Partial Glucokinase Activator Clinical Candidate: Diethyl ((3-(3-((5-(Azetidine-1-carbonyl)pyrazin-2-yl)oxy)-5-isopropoxybenzamido)-1H-pyrazol-1-yl)methyl)phosphonate (BMS-820132)” (J Med Chem, 2022)
# Assays:
# [1] = Aqueous solubility of the compound at pH 6.5 using amorphous form of sample; assay type: physicochemical; details: aqueous solution
# Hexokinase-4 [2] = target: T1, Hexokinase-4 (Homo sapiens, UniProt P35557); assay: Activation of recombinant full length human liver glucokinase expressed in Escherichia coli incubated for 10 mins by plate reader analysis
# T1 sequence (P35557 whole entry): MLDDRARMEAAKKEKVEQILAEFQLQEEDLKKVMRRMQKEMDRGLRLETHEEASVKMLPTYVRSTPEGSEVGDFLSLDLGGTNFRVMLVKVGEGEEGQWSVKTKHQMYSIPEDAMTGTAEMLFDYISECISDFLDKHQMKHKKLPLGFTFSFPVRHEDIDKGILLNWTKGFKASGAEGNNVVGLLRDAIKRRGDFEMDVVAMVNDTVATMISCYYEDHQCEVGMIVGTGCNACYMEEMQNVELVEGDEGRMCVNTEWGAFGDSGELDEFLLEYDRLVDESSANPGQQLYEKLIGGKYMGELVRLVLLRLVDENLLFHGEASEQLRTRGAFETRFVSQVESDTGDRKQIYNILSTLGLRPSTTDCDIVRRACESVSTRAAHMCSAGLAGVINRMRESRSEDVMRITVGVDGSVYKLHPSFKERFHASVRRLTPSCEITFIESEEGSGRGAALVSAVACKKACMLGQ
# [3] = Microsomal stability in human liver microsomes assessed as parent compound remaining at 0.5 uM measured after 10 mins in presence of NADPH; assay type: ADME, Microsome; details: read-out: Stability
# [4] = target: Voltage-gated inwardly rectifying potassium channel KCNH2 (Homo sapiens, UniProt Q12809); assay: Inhibition of hERG by patch clamp method; assay type: toxicity
# [5] = Permeability of compound at pH 7.4 by PAMPA assay; assay type: ADME; details: read-out: permeability
# Hexokinase-4 [6] = target: T1, Hexokinase-4; assay: Activation of recombinant human full length liver glucokinase expressed in Escherichia coli incubated for 10 mins in presence of 2 mM glucose by plate reader analysis
# Hexokinase-4 [7] = target: T1, Hexokinase-4; assay: Displacement of fluorescent labeled derivative from recombinant human hepatic glucokinase incubated for 30 mins in presence of 12 mM glucose by fluorescent polarization assay
# Hexokinase-4 [8] = target: T2, Hexokinase-4 (Mus musculus, UniProt P52792); assay: Activation of recombinant mouse full length liver glucokinase expressed in Escherichia coli incubated for 10 mins in presence of 12 mM glucose by plate reader analysis
# T2 sequence (P52792 whole entry): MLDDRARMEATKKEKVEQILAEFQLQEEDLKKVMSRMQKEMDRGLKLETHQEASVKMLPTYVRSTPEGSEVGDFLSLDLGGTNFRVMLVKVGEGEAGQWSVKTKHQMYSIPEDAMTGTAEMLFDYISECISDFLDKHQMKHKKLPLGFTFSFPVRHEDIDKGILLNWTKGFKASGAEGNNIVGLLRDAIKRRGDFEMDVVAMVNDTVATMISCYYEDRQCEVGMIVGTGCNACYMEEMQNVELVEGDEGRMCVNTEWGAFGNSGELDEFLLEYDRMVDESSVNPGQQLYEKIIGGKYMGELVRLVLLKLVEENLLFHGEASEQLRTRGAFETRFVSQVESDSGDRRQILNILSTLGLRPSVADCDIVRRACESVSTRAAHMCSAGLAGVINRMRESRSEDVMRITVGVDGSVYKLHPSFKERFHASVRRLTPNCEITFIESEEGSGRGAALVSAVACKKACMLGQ
# hERG (KCNH2) = hERG (KCNH2) (Homo sapiens, UniProt Q12809); assay: Inhibition of hERG at 10 uM by patch clamp method relative to control; assay type: toxicity
# Hexokinase-4 [9] = target: T1, Hexokinase-4; assay: Activation of recombinant human full length liver glucokinase expressed in Escherichia coli incubated for 10 mins in presence of 5 mM glucose by plate reader analysis
# Voltage-gated inwardly rectifying potassium channel KCNH2, sequence (Q12809 whole entry): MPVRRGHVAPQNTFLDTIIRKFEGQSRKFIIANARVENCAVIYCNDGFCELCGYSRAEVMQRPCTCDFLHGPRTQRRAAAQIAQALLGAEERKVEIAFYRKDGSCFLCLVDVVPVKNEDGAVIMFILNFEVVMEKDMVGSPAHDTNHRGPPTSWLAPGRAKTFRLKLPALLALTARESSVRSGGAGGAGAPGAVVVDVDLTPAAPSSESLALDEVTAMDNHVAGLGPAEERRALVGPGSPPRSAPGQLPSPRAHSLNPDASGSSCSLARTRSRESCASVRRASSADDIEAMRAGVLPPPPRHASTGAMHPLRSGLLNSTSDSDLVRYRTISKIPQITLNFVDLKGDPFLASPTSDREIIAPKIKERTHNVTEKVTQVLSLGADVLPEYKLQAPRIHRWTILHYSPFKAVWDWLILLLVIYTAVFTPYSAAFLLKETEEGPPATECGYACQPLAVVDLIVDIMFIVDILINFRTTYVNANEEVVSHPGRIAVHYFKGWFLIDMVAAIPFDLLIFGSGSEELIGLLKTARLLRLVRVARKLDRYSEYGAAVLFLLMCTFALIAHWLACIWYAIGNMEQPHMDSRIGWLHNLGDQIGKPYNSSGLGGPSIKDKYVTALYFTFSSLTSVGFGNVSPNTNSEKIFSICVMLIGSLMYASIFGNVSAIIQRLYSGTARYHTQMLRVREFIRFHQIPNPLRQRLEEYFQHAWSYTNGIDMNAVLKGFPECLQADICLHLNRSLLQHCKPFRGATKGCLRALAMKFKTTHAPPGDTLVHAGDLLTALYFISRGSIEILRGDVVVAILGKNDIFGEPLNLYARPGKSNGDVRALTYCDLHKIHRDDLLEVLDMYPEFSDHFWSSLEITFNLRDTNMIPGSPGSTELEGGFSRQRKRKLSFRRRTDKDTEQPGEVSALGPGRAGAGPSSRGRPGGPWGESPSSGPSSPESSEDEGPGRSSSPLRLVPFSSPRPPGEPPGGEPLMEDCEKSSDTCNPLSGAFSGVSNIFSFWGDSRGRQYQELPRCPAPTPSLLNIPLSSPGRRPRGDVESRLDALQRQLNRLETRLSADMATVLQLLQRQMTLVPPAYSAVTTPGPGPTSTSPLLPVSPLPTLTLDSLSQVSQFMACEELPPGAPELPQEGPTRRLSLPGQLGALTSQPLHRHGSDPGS
# hERG (KCNH2), sequence (Q12809 whole entry): as above
SMILES,solubility [1] [mg/mL],EC50 (Hexokinase-4 [2]) [µM],"remaining at 10 min, 0.5 µM [3] [%]",Papp [5] [nm/s],IC50 [4] [µM],EC50 (Hexokinase-4 [6]) [µM],IC50 (Hexokinase-4 [7]) [µM],EC50 (Hexokinase-4 [8]) [µM],inhibition at 10 µM (hERG (KCNH2)) [%],EC50 (Hexokinase-4 [9]) [µM]
COC[C@H](C)Oc1cc(Oc2ccc(S(C)(=O)=O)cc2)cc(C(=O)Nc2ccn(CP(C)(C)=O)n2)c1,0.096,0.679,96,–,> 80,–,–,–,–,–
CCOP(=O)(Cn1ccc(NC(=O)c2cc(Oc3cnc(S(C)(=O)=O)cn3)cc(OC(C)C)c2)n1)OCC,–,0.159,91,445,> 80,–,–,–,–,–
CCOP(=O)(Cn1ccc(NC(=O)c2cc(Oc3ccc(C(=O)N4CCC4)nn3)cc(OC(C)C)c2)n1)OCC,0.409,1.24,99,–,> 80,–,–,–,–,–
CCOP(=O)(Cn1ccc(NC(=O)c2cc(Oc3cnc(C(=O)NC)cn3)cc(OC(C)C)c2)n1)OCC,–,0.193,98,–,> 80,–,–,–,–,–
CCOP(=O)(Cn1ccc(NC(=O)c2cc(Oc3ccc(S(C)(=O)=O)nn3)cc(OC(C)C)c2)n1)OCC,3.83,0.53,100,255,> 80,–,–,–,–,–
CCOP(=O)(Cc1cnc(NC(=O)c2cc(Oc3ccc(S(C)(=O)=O)cc3)cc(O[C@@H](C)COC)c2)cn1)OCC,0.161,0.164,54,–,> 80,–,–,–,–,–
CCOP(=O)(Cn1ccc(NC(=O)c2cc(Oc3ccc(C(=O)N4CCC4)cn3)cc(OC(C)C)c2)n1)OCC,0.298,0.188,99,–,> 80,–,–,–,–,–
CCOP(=O)(Cc1csc(NC(=O)c2cc(Oc3ccc(S(C)(=O)=O)cc3)cc(O[C@@H](C)COC)c2)n1)OCC,0.016,0.038,4,–,50,0.185,0.122,0.042,60,0.064
CCOP(=O)(Cn1ccc(NC(=O)c2cc(Oc3cnc(S(C)(=O)=O)nc3)cc(OC(C)C)c2)n1)OCC,0.471,0.234,100,314,> 80,–,–,–,–,–
CCOP(=O)(Cn1ccc(NC(=O)c2cc(Oc3ccc(S(C)(=O)=O)cc3)cc(O[C@@H](C)COC)c2)n1)OCC,0.24,0.075,11,–,> 80,–,–,–,–,–
CCO[P@](C)(=O)Cn1ccc(NC(=O)c2cc(Oc3ccc(S(C)(=O)=O)cc3)cc(O[C@@H](C)COC)c2)n1,0.547,0.169,81,–,> 80,–,–,–,–,–
CCOP(=O)(Cn1ccc(NC(=O)c2cc(Oc3cnc(C(N)=O)cn3)cc(OC(C)C)c2)n1)OCC,–,0.656,100,–,> 80,–,–,–,–,–

# Continued, in another order:
solubility [1] [mg/mL],EC50 (Hexokinase-4 [2]) [µM],"remaining at 10 min, 0.5 µM [3] [%]",Papp [5] [nm/s],SMILES,IC50 [4] [µM],EC50 (Hexokinase-4 [6]) [µM],IC50 (Hexokinase-4 [7]) [µM],EC50 (Hexokinase-4 [8]) [µM],inhibition at 10 µM (hERG (KCNH2)) [%],EC50 (Hexokinase-4 [9]) [µM]
0.003,0.032,77,536,CCOP(=O)(Cn1ccc(NC(=O)c2cc(Oc3ccc(S(=O)(=O)C(C)C)cc3)cc(OC(C)C)c2)n1)OCC,30,–,–,–,–,–
0.229,0.061,99,–,CCOP(=O)(Cn1ccc(NC(=O)c2cc(Oc3cnc(C(=O)N4CCC4)nc3)cc(OC(C)C)c2)n1)OCC,> 80,–,–,–,–,–
–,0.098,82,84,CCOP(=O)(Cn1ccc(NC(=O)c2cc(Oc3ccc(S(C)(=O)=O)cc3)cc(O[C@@H](CC)CO)c2)n1)OCC,> 80,–,–,–,–,–
0.98,0.148,99,–,CCOP(=O)(Cn1ccc(NC(=O)c2cc(Oc3cnc(C(=O)N(C)C)cn3)cc(OC(C)C)c2)n1)OCC,> 80,–,–,–,–,–
0.007,0.079,90,7,CCOP(=O)(Cn1ccc(NC(=O)c2cc(Oc3ccc(S(C)(=O)=O)cc3)cc(O[C@@H](C)CO)c2)n1)OCC,> 80,–,–,–,–,–
0.005,0.049,33,–,CCOP(=O)(Cn1ncc(NC(=O)c2cc(Oc3ccc(S(C)(=O)=O)cc3)cc(O[C@@H](C)COC)c2)n1)OCC,–,–,–,–,–,–
0.001,0.048,88,501,CCOP(=O)(Cn1ccc(NC(=O)c2cc(Oc3ccc(S(C)(=O)=O)cc3)cc(OC(C)C)c2)n1)OCC,> 80,–,–,–,–,–
–,0.024,96,471,CCOP(=O)(Cn1ccc(NC(=O)c2cc(Oc3ccc(S(C)(=O)=O)nc3)cc(OC(C)C)c2)n1)OCC,> 80,–,–,–,–,–
0.01,0.076,93,382,CCOP(=O)(Cn1ccc(NC(=O)c2cc(Oc3ccc(S(C)(=O)=O)cc3)cc(OC(CF)CF)c2)n1)OCC,44,–,–,–,–,–
0.001,0.087,78,560,CCOP(=O)(Cn1ccc(NC(=O)c2cc(Oc3ccc(S(C)(=O)=O)cc3)cc(O[C@@H](C)CF)c2)n1)OCC,> 80,–,–,–,–,–
0.039,0.025,66,–,CCOP(=O)(Cn1ccc(NC(=O)c2cc(Oc3ccc(C(=O)N4CCC4)nc3)cc(OC(C)C)c2)n1)OCC,> 80,–,–,–,–,–
0.002,0.067,46,516,CCOP(=O)(Cn1ccc(NC(=O)c2cc(Oc3ccc(S(=O)(=O)N4CCC4)cc3)cc(OC(C)C)c2)n1)OCC,33,–,–,–,–,–
–,0.028,94,534,CCOP(=O)(Cn1ccc(NC(=O)c2cc(Oc3ccc(S(=O)(=O)CC)cc3)cc(OC(C)C)c2)n1)OCC,–,–,–,–,–,–
